The text below walks through data of PMC9695592, “Phenotypic Evaluation of Nucleoside Analogues against Trypanosoma cruzi Infection: In Vitro and In Vivo Approaches” (Molecules, 2022).

One test relates to L929 cells. Briefly: Toxicity on L929 cells (AlamarBlue). The note with it: Mus musculus, L929, 168 h; seven days of compound incubation; 95% confidence interval in brackets. Format: cell-based. An excerpt: (§1) L929 cell lines were used to evaluate the effect of the nucleoside derivatives on the cellular viability of mammalian host cells and to assess their activity against intracellular forms of T. cruzi (Tulahuen strain expressing E. coli β-galactosidase gene, DTU VI) as reported. 2D and 3D culture systems of rat cardiomyoblast cell lines (H9C2(2-1)) were used to evaluate cardiotoxicity and to test the derivatives’ activity on intracellular forms (Y strain, DTU II). In all assays, the cell cultures were maintained at 37 °C under an atmosphere of 5% CO2.
L929 cells seeded in sterile 96-well microtiter plates were exposed or not to increasing concentrations (up to 200 µM) of the compounds. After seven days of incubation, the cell growth of treated cultures was compared to untreated control cells (100% cell growth). Cellular viability was assessed through AlamarBlue® (resazurin sodium salt) colorimetric assay, and the results were expressed as % reduction in cell growth/viability compared to untreated control, and an IC50 value determined. For the assays using H9C2 cultures, 25 × 10^3 cells/well were seeded in a 96-well microtiter plates (flat and U bottoms, precoated with agarose 1% for preparing 2- and 3D matrices, respectively) and maintained at 37 °C [48, 54].
A general note: Resazurin is reduced to fluorescent resorufin, in cell work by metabolically active cells.

Test [1] concerns bloodstream trypomastigotes of T. cruzi (Y strain). Briefly: Activity against bloodstream trypomastigotes, light microscopy counting. Format: cell-based. Particulars: Trypanosoma cruzi, 24 h of compound incubation, 95% confidence interval in brackets; for EC50: read-out: Activity upon Bloodstream Forms EC50; for EC90: read-out: Activity upon Bloodstream Forms EC90. On the procedure: (§2) Bloodstream trypomastigotes of the Y strain (DTU II) were obtained by cardiac puncture of infected Swiss Webster mice on the parasitemia peak to perform drug sensitivity assays. Trypomastigote forms of the Tulahuen-β gal strain were collected from the supernatant of previously infected L929 cell cultures (host/parasite cell ratio 10:1). The intracellular forms T. cruzi were studied by the infection of L929 and H9C2 (2D and 3D) cell cultures infected for 48 and 24 h with trypomastigotes of Tulahuen-β gal and Y strains, respectively. The Leishmania mexicana-Cas9 T7 strain (LmexCas9) was derived from L. mexicana WT promastigotes by expression of the Streptococcus pyogenes Cas9 nuclease gene ‘Cas9′ and maintained on 32 μg/mL hygromycin [51]. This strain and the derived strains Cas9^ΔNT1 and Cas9^ΔNT1+TcrNT2 were cultured in HOMEM medium supplemented with 10% of FBS and 1% Penicillin-Streptomycin antibiotic in unvented flasks at 25 °C [52]. The Cas9^ΔNT1 strain is identical to Cas9 except that the LmexNT1.1/NT1.2 locus encoding the L. mexicana adenosine/ pyrimidine transporters was excised using Cas9 [17, 40]. Cas9^ΔNT1+TcrNT2 is the further modification of that strain by the expression of the T. cruzi nucleoside transporter 2 (TcrNT2) gene in it, using the vector pNUS-HcN [53]. Appropriate antibiotics were added for the selection and maintenance of transfectants.
To analyze the compound activity against bloodstream trypomastigotes of T. cruzi (Y strain), […] of parasite were added in 96-well microtiter plates and incubated for 2 or for 24 h at 37 °C in RPMI culture medium in the presence or absence of each compound (up to 30 µM). The death rates were quantified by light microscopy using a Neubauer chamber to determine the EC50 [49, 58]. The data results from two independent experiments performed in duplicate were obtained.

Test [2] deals with intracellular forms of T. cruzi. Set-up: method as in PMID 20428688. The note with it: read-out: EC90 value of Bz against the intracellular forms of T. cruzi; cited from earlier work.
Test [3] relates to intracellular forms of T. cruzi (Y strain) in 3D H9C2. Put plainly: Activity against T. cruzi (Y strain) infection of H9C2 spheroids (3D). Format: cell-based, Trypanosoma cruzi. The note with it: 10 µM, seven days of incubation, 95% confidence interval in brackets.
Source text: as §1, §2
3D cultures of H9C2 cells were obtained as described, and 24 h after plating, the spheroids were infected (or not, control) with bloodstream trypomastigotes of T. cruzi (strain Y), using 20 parasites per host cell. After 24 h, infected spheroids were incubated with 10 µM of the tested compounds for seven days, and then the spheroids were transferred one by one to an Eppendorf tube, with the aid of a pestle they were mechanically macerated following an established protocol with minor adaptations. The parasite load was quantified by light microscopy and qPCR [54], and the results were expressed as % of parasite death. The data results from two independent experiments performed in at least duplicate.

Test [4] relates to promastigotes of LmexCas9. Briefly: Resazurin-based assay on LmexCas9 promastigotes. The class given is cell-based, Leishmania mexicana. On the procedure: as §2
(§3) The EC50 values for nucleoside analogues against Leishmania mexicana promastigotes of the Cas9, Cas9^ΔNT1 and Cas9^ΔNT1+TcrNT2 strains used a resazurin-based assay, as described. Briefly, the assays were performed in standard HOMEM medium and culture conditions, in white opaque 96-well plates. For each test compound (stored as a 40 mM stock solution in 100% DMSO at −20 °C), a doubling dilution was performed over 2 rows of the plate, keeping the last well free as no-drug control with HOMEM only (23 doubling dilutions; highest concentration 100 µM). To each well, 100 µL of HOMEM containing 2 × 10^5 cells of the appropriate L. mexicana line was added, and the plates incubated for 72 h at 25 °C, followed by the addition of 20 µL of resazurin solution and further incubation for 48 h. Fluorescence was read on a FLUOstar OPTIMA plate reader (BMG Labtech, Germany), at an excitation wavelength of 544 nm and an emission wavelength of 620 nm. The EC50 values were determined by the GraphPad Prism 8.0 software using an equation for a sigmoid curve with variable slope. Pentamidine was used as positive control, and every experiment was independently performed at least 3 times independently.

For test [5], the system named is promastigotes of Cas9^ΔNT1. Put plainly: Resazurin-based assay on Cas9^ΔNT1 promastigotes. The class given is cell-based, Leishmania mexicana. On the procedure: as §2, §3
Test [6] relates to promastigotes of Lmex^ΔNT1+TcrNT2. Put plainly: Resazurin-based assay on Cas9^ΔNT1+TcrNT2 promastigotes. Format: cell-based, Leishmania mexicana. Particulars: for EC50: Leishmania mexicana, read-out: Lmex^ΔNT1+TcrNT2 EC50 (μM). The procedure: as §2, §3
[7] abbreviates: Leishmania mexicana, read-out: Cas9 EC50 (μM), promastigotes, resazurin-based assay, highest concentration 100 µM.
Setting [8] is: Leishmania mexicana, read-out: Cas9^ΔNT1 EC50 (μM), promastigotes, resazurin-based assay, highest concentration 100 µM.

Like-named read-outs stand apart in the source and are kept apart here.

For orientation: IC50 means the midpoint of a concentration-inhibition curve. A word on the EC90: it is the concentration needed for an effect of 90%. Take `O=C(Cn1ccnc1[N+](=O)[O-])NCc1ccccc1` [Bz, Benznidazole, reference compound]: the IC50 in the test with L929 cells is above 200 µM. In test [1], the EC50 was found to be 6.9 µM and the EC90 came out at 19.6 µM. Besides, in test [2], the EC90 was 10 µM. For the same molecule, in test [3], the “% of Death Rate by Light Microscopy Quantification 3D” value is given as 98.4 (98.1 to 98.7) % and the “% of Death Rate by qPCR 3D” value was determined as 100%.

In the test with L929 cells, `Nc1ncnc2c1c(-c1ccc(Cl)c(Cl)c1)cn2[C@@H]1O[C@H](CO)C[C@H]1O` [FH8513, 7-(3,4-dichlorophenyl)-3′-deoxytubercidin] came in with a half-maximal inhibitory concentration (IC50) of 22.3 µM. Also, the EC50 in test [4] (setting [7]) is around 100 µM; in test [4] (read-out: Cas9 EC50, promastigotes, resazurin-based assay, highest concentration 100 µM), above 100 µM; in test [1] it was 5.9 µM; in test [5] (setting [8]) it was around 100 µM; in test [5] (read-out: Cas9^ΔNT1 EC50, promastigotes, resazurin-based assay, highest concentration 100 µM), 100.5 ± 0.9 µM; in test [6], 31.1 ± 0.5 µM. Further, the 90% effect concentration (EC90) in test [1] turned out to be 16.7 µM. The “% of Death Rate by Light Microscopy Quantification 3D” value in test [3] was 83.8 (67.5 to 100) %. In test [3], the “% of Death Rate by qPCR 3D” value is 94 (90 to 98) %. The “Lmex^ΔNT1+TcrNT2 Sensitization (fold)” value in test [6] (ratio of the EC50 values of the Cas9^ΔNT1 and Cas9^ΔNT1+TcrNT2 strains) was 3.2 fold.

In turn, `Nc1ncnc2c1c(-c1ccc(Cl)c(F)c1)cn2[C@@H]1O[C@H](CO)[C@@H](O)[C@H]1O` [FH10714, 7-(3-fluoro,4-chlorophenyl)tubercidin] gave an IC50 in the test on L929 cells of 55.8 µM. The EC50 in test [4] (setting [7]) was above 100 µM; in test [1] it was 13.4 µM; in test [5] (setting [8]), above 100 µM; in test [6], above 100 µM. Further, the EC90 in test [1] is above 30 µM. For the same molecule, the “% of Death Rate by Light Microscopy Quantification 3D” value in test [3] is on record as 93.5 (93.46 to 93.54) %. The “% of Death Rate by qPCR 3D” value in test [3] is given as 67 (38 to 96) %.

With `Nc1ncnc2c1c(-c1ccc(F)c(F)c1)cn2[C@@H]1O[C@H](CO)[C@@H](O)[C@H]1O` [FH11706, 7-(3,4-Difluorophenyl)tubercidin], in the test on L929 cells, half-maximal inhibition (IC50) required 118 µM. Further, in test [4] (setting [7]), the EC50 was above 100 µM. Besides, in test [1], the EC50 is 17.6 µM and the EC90 was above 30 µM. Moreover, in test [3], the “% of Death Rate by Light Microscopy Quantification 3D” value is on record as 91.6 (86.2 to 97) % and the “% of Death Rate by qPCR 3D” value was 85 (79 to 91) %. Further, the EC50 in test [5] (setting [8]) was above 100 µM.
